The values below come from PubChem BioAssay AID434987 (Southern Research Specialized Biocontainment Screening …, 2010).

The subject of this experiment is M. tuberculosis H37Rv growth inhibition with meropenem. Kind of experiment: dose response, H37Rv, with and without meropenem (AID 434987).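 Further: growth over 7 days at 37 °C before Alamar Blue read on day 9.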
The mark [1] stands for this setting: M. tuberculosis H37Rv growth inhibition, measured here: IC50 without meropenem.
Setting [2] is: M. tuberculosis H37Rv growth inhibition, measured here: IC90 without meropenem.
Where [3] appears, read: measured here: IC90 with meropenem.

The term IC50 denotes the concentration needed to halve the response being measured. One may read the IC90 as the concentration needed for an effect of 90%. Read a low IC90 as an effect from little substance.

The source made the active and inactive calls. How the calls were made is not given here.

With `Cc1cc(C)c(NC(=O)CC(C)(C)C)c(Cl)c1`, the IC50 was 76.4 µM (inactive). The same compound yielded an IC50 under setting [1] of over 100 µM. Under setting [2], the concentration for an effect of 90% (IC90) is over 100 µM. Moreover, under setting [3], the concentration for an effect of 90% (IC90) is over 100 µM.

For `O=C(NN1C(=O)c2cc(Br)ccc2NC1c1ccccc1Cl)c1ccncc1` (configuration not stated), the IC50 is 12.5 µM. The IC50 under setting [1] came to 35 µM. The same compound returned a 90% effect concentration (IC90) under setting [2] of 50.7 µM. For the same compound, the 90% effect concentration (IC90) under setting [3] worked out at 13.7 µM.

As for `COc1ccc(-c2c(-c3ccsc3)oc3ccc(N4CCOCC4)cc23)cc1`, the IC50 was > 100 µM (inactive). This compound had an IC50 under setting [1] of over 100 µM. Moreover, under setting [2], the IC90 is over 100 µM. The IC90 under setting [3] is over 100 µM.

For the compound `Cc1ncc(CCl)c2c1OC(C)(C)OC2`, the IC50 was 42.5 µM (inactive). The compound further showed an IC50 under setting [1] of 89.2 µM. The 90% effect concentration (IC90) under setting [2] was over 100 µM. Further, the 90% effect concentration (IC90) under setting [3] is over 100 µM.

For `Cc1cccc(NC(=O)c2cc3ccccc3c(=O)o2)n1`, the IC50 is 37.9 µM. Moreover, the half-maximal inhibitory concentration (IC50) under setting [1] was over 100 µM. Under setting [2], this compound gave an IC90 of over 100 µM. This compound displayed a concentration for an effect of 90% (IC90) under setting [3] of over 100 µM.

For the compound `Cc1cccnc1NC(=S)NC(=O)c1cncc(Br)c1`, the IC50 was 4.68 µM. Also, the 50% inhibitory concentration (IC50) under setting [1] was 40.3 µM. Besides, the concentration for an effect of 90% (IC90) under setting [2] is over 100 µM. In addition, under setting [3], the IC90 is over 100 µM.

Take `Cc1ccccc1/C=N\NC(=O)c1csnn1`: the 50% inhibitory concentration (IC50) is 21.6 µM. Under setting [1], this compound came in with a concentration for half-maximal inhibition (IC50) of over 100 µM. Moreover, the IC90 under setting [2] was over 100 µM. Under setting [3], this compound had an IC90 of over 100 µM.

`CC(C)(C)OC(=O)N1CCC(NC(=O)c2[nH]cnc2C(=O)Nc2ccccc2)CC1`: the IC50 was > 100 µM (inactive). The compound also came in with an IC50 under setting [1] of over 100 µM. The same compound yielded an IC90 under setting [2] of over 100 µM. Under setting [3], this compound showed a concentration for an effect of 90% (IC90) of over 100 µM.

`O=C(COC(=O)C1CC1)c1c[nH]c2ccccc12`: the IC50 was 0.999 µM. The compound further displayed a half-maximal inhibitory concentration (IC50) under setting [1] of over 100 µM. In addition, the concentration for an effect of 90% (IC90) under setting [2] was over 100 µM. Further, the IC90 under setting [3] was over 100 µM.

On to `O=C(/C=C/c1cc(Br)ccc1F)OCC(=O)N1CCCC1`, for which the IC50 was > 100 µM (inactive). Under setting [1], this compound had an IC50 of over 100 µM. Also, the concentration for an effect of 90% (IC90) under setting [2] was over 100 µM. Moreover, the IC90 under setting [3] is over 100 µM.

Take `COc1cccc(NC(=S)Nc2cc(C)cc(C)n2)c1`: the concentration for half-maximal inhibition (IC50) was 6.41 µM. This compound also had a 50% inhibitory concentration (IC50) under setting [1] of over 100 µM. The compound further showed an IC90 under setting [2] of over 100 µM. The compound further had an IC90 under setting [3] of over 100 µM.

With `COC(=O)CNC(c1ccccc1Cl)c1cc(Br)ccc1NC(=O)CCN1CCOCC1` (configuration not stated), the IC50 was 19.8 µM. Further, under setting [1], the IC50 stood at 49.1 µM. Moreover, under setting [2], the IC90 was 53.7 µM. The concentration for an effect of 90% (IC90) under setting [3] was found to be 34.3 µM.

Consider `Cc1ccc(-n2ncc3c(=O)n(CC#N)cnc32)cc1C`, for which the IC50 was 20.9 µM. Also, the 50% inhibitory concentration (IC50) under setting [1] was determined as 51.3 µM. Under setting [2], this compound displayed an IC90 of over 100 µM. The same compound came in with a concentration for an effect of 90% (IC90) under setting [3] of over 100 µM.

As for `COc1cccc(NC(=O)C(=O)c2cn(CC(=O)N3CCOCC3)c3ccccc23)c1`, the IC50 is > 100 µM (inactive). Under setting [1], this compound came in with a 50% inhibitory concentration (IC50) of over 100 µM. Under setting [2], the IC90 is over 100 µM. For the same compound, the concentration for an effect of 90% (IC90) under setting [3] is over 100 µM.

In the case of `COc1cc(/C=N/NC(=S)Nc2cccc(S(=O)(=O)N(C)C)c2)cc(OC)c1O`, the IC50 was > 100 µM (inactive). In addition, the 50% inhibitory concentration (IC50) under setting [1] was over 100 µM. The compound also gave an IC90 under setting [2] of over 100 µM. The compound also yielded a concentration for an effect of 90% (IC90) under setting [3] of over 100 µM.

`COc1ccc(C2C(C#N)=C(SCC(=O)Nc3ccc(C)cc3)NC3=C2C(=O)CC(C)(C)C3)cc1` (configuration not stated): the IC50 was 94.3 µM (inactive). This compound also showed a concentration for half-maximal inhibition (IC50) under setting [1] of over 100 µM. For the same compound, under setting [2], the IC90 was over 100 µM. Also, the 90% effect concentration (IC90) under setting [3] was over 100 µM.

As for `CCC(CC)C(=O)Nc1ccc(Sc2ccc([N+](=O)[O-])cc2)cc1`, the IC50 is > 100 µM (inactive). The same compound came in with a 50% inhibitory concentration (IC50) under setting [1] of over 100 µM. Further, the IC90 under setting [2] is over 100 µM. This compound also displayed a concentration for an effect of 90% (IC90) under setting [3] of over 100 µM.

As to `O=C1Nc2c(ccc(Cl)c2Cl)C(=O)C1(F)c1ccccc1` (configuration not stated), the IC50 is 23.7 µM. This compound also displayed an IC50 under setting [1] of 95.6 µM. The 90% effect concentration (IC90) under setting [2] was over 100 µM. In addition, the concentration for an effect of 90% (IC90) under setting [3] was found to be 71.7 µM.

With `COC(=O)c1ccc(-c2cc(C(=O)O)c3cc4c(cc3n2)OCCO4)cc1`, the IC50 is > 100 µM (inactive). For the same compound, under setting [1], the 50% inhibitory concentration (IC50) is over 100 µM. For the same compound, under setting [2], the IC90 is over 100 µM. Further, the IC90 under setting [3] was over 100 µM.

With `CCOCC(=O)Nc1cc(C(F)(F)F)ccc1Oc1cccc(Br)c1`, the IC50 was 56.9 µM (inactive). Under setting [1], this compound came in with a half-inhibitory concentration (IC50) of over 100 µM. Under setting [2], this compound displayed an IC90 of over 100 µM. Besides, under setting [3], the 90% effect concentration (IC90) is over 100 µM.

For `C/C(CC(=O)Nc1c(C)cc(C)cc1C)=N\NC(=O)c1cnccn1`, the concentration for half-maximal inhibition (IC50) is 5.21 µM. For the same compound, under setting [1], the IC50 is 28.7 µM. The 90% effect concentration (IC90) under setting [2] turned out to be 58.5 µM. Under setting [3], this compound came in with an IC90 of 17.4 µM.

In the case of `O=c1[nH]c(/C=C/c2cccc(Br)c2)nc2ccccc12`, the IC50 is > 100 µM (inactive). In addition, the half-inhibitory concentration (IC50) under setting [1] is over 100 µM. The compound further came in with a 90% effect concentration (IC90) under setting [2] of over 100 µM. Under setting [3], this compound showed a 90% effect concentration (IC90) of over 100 µM.

Consider `COc1ccnc(CS(=O)c2nc3cc(OC(F)F)ccc3[nH]2)c1OC` (configuration not stated), for which the IC50 was > 100 µM (inactive). Under setting [1], this compound registered a 50% inhibitory concentration (IC50) of over 100 µM. This compound showed an IC90 under setting [2] of over 100 µM. Under setting [3], this compound registered an IC90 of over 100 µM.
